# Results taken from EP2982368A1, “Small molecule compounds displacing focal adhesion core components” (Universität Konstanz, priority 2014, dated 2016).
# Entries after “also recorded” stand apart in the source; their conditions may differ.
# Tests used:
# paxillin [1] = target: T1, paxillin (Mus musculus, UniProt Q8VI36); assay: Paxillin displacement in FAK-deficient MEFs (immunostaining, confocal microscopy); type: cell-based
# T1 construct: endogenous in cells; host or cells: FAK-/- mouse embryonic fibroblasts
# T1 sequence (Q8VI36 whole entry): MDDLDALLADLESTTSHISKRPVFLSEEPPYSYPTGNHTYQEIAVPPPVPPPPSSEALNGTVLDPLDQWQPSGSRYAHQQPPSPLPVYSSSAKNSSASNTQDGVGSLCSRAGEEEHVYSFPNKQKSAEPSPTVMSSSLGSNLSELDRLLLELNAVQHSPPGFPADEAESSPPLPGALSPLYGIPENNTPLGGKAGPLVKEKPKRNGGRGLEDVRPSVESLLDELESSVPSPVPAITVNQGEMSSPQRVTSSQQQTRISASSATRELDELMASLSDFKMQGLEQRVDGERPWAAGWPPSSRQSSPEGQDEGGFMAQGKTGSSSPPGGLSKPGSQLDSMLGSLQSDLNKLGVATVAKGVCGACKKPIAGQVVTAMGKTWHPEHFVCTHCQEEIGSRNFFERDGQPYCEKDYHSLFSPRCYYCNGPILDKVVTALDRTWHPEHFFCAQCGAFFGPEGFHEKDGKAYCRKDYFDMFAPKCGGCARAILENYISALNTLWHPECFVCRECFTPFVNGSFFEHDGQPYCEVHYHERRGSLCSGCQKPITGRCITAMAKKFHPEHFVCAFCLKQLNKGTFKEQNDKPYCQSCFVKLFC
# paxillin [2] = assay: Paxillin displacement in GFP-FAK MEFs (antibody staining, live cell imaging of mKate-paxillin); type: cell-based, mouse; settings: 10 µM
# Description: The C-terminal focal adhesion targeting domain of FAK binds to paxillin and talin and is responsible for an efficient recruitment of FAK to focal adhesions. Therefore, it was further investigated whether Mb31 targets FAK directly or possibly in an indirect way by displacement of FAK binding proteins paxillin or talin, respectively. GFP-FAK MEFs were treated with 10 µM of Mb31 and analyzed for paxillin and talin localization via antibody staining. […] To analyze whether FAK and paxillin displacement occur with the same temporal pattern GFP-FAK MEFs were transiently transfected to express mKate-tagged paxillin and living cells were imaged after application of 10 µM of Mb31. Along with FAK, paxillin delocalized rapidly and within 10 min almost no paxillin and FAK remained at focal adhesions. Strikingly, in cells over-expressing paxillin higher Mb31 concentrations were necessary in order to achieve efficient FAK displacement. In non-transfected cells already 4 to 5 µM Mb31 were sufficient, whereas in cells with strong over-expression of paxillin even at 10 µM FAK and paxillin displacement was only partial. […] Still, vinculin localization was not altered in FAK-deficient MEFs treated with Mb31.
# MEFs were seeded on fibronectin fragment (4 µg/ml in PBS) in multi-well plates (Greiner Bio-One) and incubated for 4 h to allow spreading. Cells were fixed and permeabilized with MeOH at -20°C after pre-fixation with 4% paraformaldehyde. Cells were blocked with 10% CS in PBS (blocking buffer) and incubated with primary antibodies (α-talin, α-paxillin or α-vinculin) in blocking buffer for 1 h at room temperature. Cells were washed three times with PBS and were incubated with appropriate fluorescently labeled secondary antibodies. Cells were washed again with PBS to remove excess antibodies and were imaged using a Leica AF6000LX fluorescence microscope. To analyze reversibility compound treated cells were washed three times with pre-warmed growth medium. After washout cells were incubated 1 h in presence of 10 µg/ml cycloheximide. […]
# focal adhesion proteins = assay: Localization of focal adhesion proteins (fluorescent fusion proteins) in presence of Mb31; type: cell-based, Mouse; settings: 10 µM Mb31, 30 min; value is the protein
# Description: In order to investigate the kinetics of FAK displacement at focal adhesions a time series was performed. GFP-FAK MEFs were treated with 20 µM of Mb31 or Mb36 and fixed after different time points. […] Mb36 kinetic was slightly slower with FAK delocalization after 20 min. In addition, GFP-FAK MEFs were treated with increasing concentrations of Mb31 or Mb36 to determine the minimum concentration required to interfere with FAK localization. Untreated or solvent (DMSO) treated cells show the expected localization of FAK at focal adhesions. […] Already 2 µM of Mb31 were sufficient to induce FAK displacement. […] Due to the faster kinetic and lower IC50 compared to Mb36 further studies were mainly performed using Mb31. […] In contrast, vinculin localization and the focal adhesion localization of talin, α-actinin, and zyxin is not disturbed (Figure 5 and Table 1).
# Mouse embryonic fibroblasts expressing the indicated proteins as fluorescent fusion proteins were incubated with 10 µM Mb31 or solvent alone for 30 min. Afterwards, the cells were fixed and the localization of the focal adhesion proteins was analyzed microscopically.
# focal adhesions = assay: Focal adhesion dynamics by TIRF microscopy (mKate-vinculin); type: cell-based, mouse; settings: 5 µM, 40 minutes
compound,measurement,setting,value
"O=[N+]([O-])C=Cc1cc(Br)cs1 [FootLocker 1, 4-bromo-2-(2-nitrovinyl)thiophene]",paxillin displacement in FAK knockout MEFs,paxillin [1]; 30 min,efficiently displaced
same,concentration efficiently displacing paxillin,"paxillin [1]; FAK-/- MEF cells, 30 min, 1, 10, or 20 µM",> 1 µM
same,FAK and paxillin displacement in cells with strong over-expression of paxillin,paxillin [2],only partial
same,paxillin localization,"paxillin [2]; 30 min, antibody staining",displaced from focal adhesions
same,time until almost no paxillin and FAK remained at focal adhesions,paxillin [2]; living cells expressing mKate-tagged paxillin,≤ 10 min
same,Displaced from focal adhesions,focal adhesion proteins,Focal adhesion kinase (FAK) and Paxillin and Grb2 and CRKII
same,No effect on localization,focal adhesion proteins,Talin; also recorded: α-actinin; also recorded: Vinculin; also recorded: Zyxin
same,nascent adhesion formation and mobility of mature adhesions,focal adhesions,nascent adhesion formation was absent and mature adhesions were immobile
